ChEMBL document CHEMBL1201862, “PubChem BioAssay data set” (2004)
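All cell lines were grown in 96-well plates and treated with compound for 48 hours. GI50: concentration for 50% inhibition of growth.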 Activity calls are given as the source filed them. Cut-off read from the data, not from the text of the source: active = GI50 up to about 1.1 µM and inactive = higher.

Tests used:
Assay in all cases: growth of human tumour cells (NCI), 48 h
[1] = system: DMS-273
[2] = system: XF498
[3] = system: KM-20L2
[4] = system: RXF 631
[5] = system: SNB-78
[6] = system: DMS-114
[7] = system: M19-MEL
[8] = system: LXFL 529
[9] = system: HOP-18

Measured: GI50

O=C1[C@@H]2C(c3ccccc3Br)=NO[C@@H]2C(=O)N1c1ccc(Cc2ccc(N3C(=O)[C@H]4C(c5ccccc5Br)=NO[C@H]4C3=O)cc2)cc1
inactive: [1] > 100 µM | [2] 67.9 µM | [3] > 100 µM | [4] > 100 µM | [5] > 100 µM | [6] > 100 µM | [7] > 100 µM | [8] > 100 µM | [9] 45.6 µM
